{
  "source": "patent US20170209375A1",
  "about": "“NANOPARTICLE FORMULATIONS OF LOW-WATER SOLUBILITY ACTIVES” (Bend Research, Inc., priority 2014, published 2017)",
  "key": {"[1]": {"details": "cited from earlier work"}, "[2]": {"assay": "pKa of counterions and active agents", "assay_type": "physicochemical", "details": "active vs its counterion; read-out: difference between the pKa of the active and the counterion"}, "[3]": {"details": "pH 6.5; cited from earlier work"}, "[4]": {"details": "counterion, first value of the cell, some values marked estimated"}},
  "note": "Values joined by “and” are separate entries in the source; they are usually repeats but may differ in a detail not shown here. Equal entries are not always repeated. Structures can show the parent of a compound that is named as a salt. Where two headings read alike, the source gives them in different places.",
  "data": [
    {"smiles": "c1ccc(CNCCNCc2ccccc2)cc1", "note": "[N,N′-dibenzylethylene diamine]", "values": [
      {"measurement": "pKa", "setting": "[1]; [4]", "value": 6.2}
    ]},
    {"smiles": "COc1ccc(-c2ccc3cc(C(=O)O)ccc3c2)cc1C12CC3CC(CC(C3)C1)C2", "note": "[Adapalene, reference compound]", "values": [
      {"measurement": "pKa", "setting": "[1]; active agent", "value": 4.2},
      {"measurement": "pKa", "setting": "[2]", "value": 5.2}
    ]},
    {"smiles": "CC(C)CCC[C@@H](C)[C@H]1CC[C@H]2[C@@H]3CC=C4C[C@@H](OP(=O)(O)O)CC[C@]4(C)[C@H]3CC[C@]12C", "note": "[Cholesteryl phosphate, cholesteryl phosphate]", "values": [
      {"measurement": "pKa", "setting": "[1]; [4]", "value": "<2", "unit": "estimated"}
    ]},
    {"smiles": "Cc1c(C)c2c(c(C)c1OS(=O)(=O)O)CCC(C)(CCCC(C)CCCC(C)CCCC(C)C)O2", "note": "(stereo not drawn) [Tocopherol sulfate, tocopherol sulfate]", "values": [
      {"measurement": "pKa", "setting": "[1]; [4]", "value": "<1", "unit": "estimated"}
    ]},
    {"smiles": "CC(C)c1ccc2c(c1)CC[C@H]1[C@](C)(CNCCNC[C@]3(C)CCC[C@]4(C)c5ccc(C(C)C)cc5CC[C@@H]34)CCC[C@]21C", "note": "[N^1,N^2-bis(((1 R,4aS,10aR)-7-isopropyl-1,4a-dimethyl-1,2,3,4,4a,9,10,10a-octahydrophenanthren-1-yl)methyl)ethane-1,2-diamine]", "values": [
      {"measurement": "pKa", "setting": "[1]; [4]", "value": 6.6}
    ]},
    {"smiles": "O=S(=O)(O)c1ccc2ccccc2c1", "note": "[2-Naphthalenesulfonate, 2-naphthalene sulfonate]", "values": [
      {"measurement": "pKa", "setting": "[1]; [4]", "value": 0.17}
    ]},
    {"smiles": "CC(C)(C)c1ccc2c(S(=O)(=O)O)c(C(C)(C)C)ccc2c1S(=O)(=O)O", "note": "[2,6-di-tert-butylnaphthalene-1,5-disulfonate]", "values": [
      {"measurement": "pKa", "setting": "[1]; [4]", "value": "−2.32"},
      {"measurement": "pKa", "setting": "[1]; counterion, second value printed in the same cell", "value": "−3.05"}
    ]},
    {"smiles": "C#Cc1cccc(Nc2ncnc3cc(OCCOC)c(OCCOC)cc23)c1", "note": "[Erlotinib, N-(3-ethynylphenyl)-6,7-bis(2-methoxyethoxy) quinazolin-4-amine, reference compound]", "values": [
      {"measurement": "pKa", "setting": "[1]; active agent", "value": "5.42 and 5.4"},
      {"measurement": "solubility in phosphate buffered saline", "setting": "[3]", "value": 1, "unit": "µg/mL"},
      {"measurement": "pKa", "setting": "[2]", "value": "≥ 4.4"}
    ]},
    {"smiles": "O=C(CC(C(=O)OC1CCCCC1)S(=O)(=O)O)OC1CCCCC1", "note": "(stereo not drawn) [1,4-dicyclohexyloxy-1,4-dioxobutane-2-sulfonate]", "values": [
      {"measurement": "pKa", "setting": "[1]; [4]", "value": "<1", "unit": "estimated"}
    ]},
    {"smiles": "Cc1c(C)c2c(c(C)c1OP(=O)(O)O)CCC(C)(CCCC(C)CCCC(C)CCCC(C)C)O2", "note": "(stereo not drawn) [Tocopherol phosphate, tocopherol phosphate]", "values": [
      {"measurement": "pKa", "setting": "[1]; [4]", "value": "<2", "unit": "estimated"}
    ]},
    {"smiles": "CC(C)CCOC(=O)CC(C(=O)OCCC(C)C)S(=O)(=O)O", "note": "(stereo not drawn) [1,4-diisopentyloxy-1,4-dioxobutane-2-sulfonate]", "values": [
      {"measurement": "pKa", "setting": "[1]; [4]", "value": "<1", "unit": "estimated"}
    ]},
    {"smiles": "CC(C)(C)c1ccc2c(S(=O)(=O)O)c(C(C)(C)C)ccc2c1", "note": "[2,6-di-tert-butylnaphthalene-1-sulfonate]", "values": [
      {"measurement": "pKa", "setting": "[1]; [4]", "value": "−2.48"}
    ]},
    {"smiles": "CC(C)CCC[C@@H](C)[C@H]1CC[C@H]2[C@@H]3CC=C4CC(OS(=O)(=O)O)CC[C@]4(C)[C@H]3CC[C@]12C", "note": "(stereo partly drawn) [Cholesteryl sulfate, cholesteryl sulfate]", "values": [
      {"measurement": "pKa", "setting": "[1]; [4]", "value": "<1", "unit": "estimated"}
    ]},
    {"smiles": "c1ccc(CCNCc2ccccc2)cc1", "note": "[N-(benzyl)-2-phenylethan-1-amine]", "values": [
      {"measurement": "pKa", "setting": "[1]; [4]", "value": 9.4}
    ]}
  ]
}
